# Measurements taken from patent US8299048B2, “Hexahydrocyclopentyl[f]indazole sulfonamides and derivatives thereof as selective glucocorticoid receptor modulators” (Merck Sharp & Dohme Corp., priority 2008, dated 2012).
# Key:
# [1] = target: T1, human GR (Homo sapiens, UniProt P04150); assay: Trans-Activation Modulation of Glucocorticoid Receptor (GRAMMER), MMTV-LUC reporter, agonist mode; format: cell-based; parameters: endogenous in cells; details: for Emax: A549, A549 cells, maximum activity, read-out: Transactivation A549 Cells GRAMMER Emax; for EC50: A549 cells, inflection point, read-out: Transactivation A549 Cells GRAMMER IP
# T1 sequence (P04150 1-777): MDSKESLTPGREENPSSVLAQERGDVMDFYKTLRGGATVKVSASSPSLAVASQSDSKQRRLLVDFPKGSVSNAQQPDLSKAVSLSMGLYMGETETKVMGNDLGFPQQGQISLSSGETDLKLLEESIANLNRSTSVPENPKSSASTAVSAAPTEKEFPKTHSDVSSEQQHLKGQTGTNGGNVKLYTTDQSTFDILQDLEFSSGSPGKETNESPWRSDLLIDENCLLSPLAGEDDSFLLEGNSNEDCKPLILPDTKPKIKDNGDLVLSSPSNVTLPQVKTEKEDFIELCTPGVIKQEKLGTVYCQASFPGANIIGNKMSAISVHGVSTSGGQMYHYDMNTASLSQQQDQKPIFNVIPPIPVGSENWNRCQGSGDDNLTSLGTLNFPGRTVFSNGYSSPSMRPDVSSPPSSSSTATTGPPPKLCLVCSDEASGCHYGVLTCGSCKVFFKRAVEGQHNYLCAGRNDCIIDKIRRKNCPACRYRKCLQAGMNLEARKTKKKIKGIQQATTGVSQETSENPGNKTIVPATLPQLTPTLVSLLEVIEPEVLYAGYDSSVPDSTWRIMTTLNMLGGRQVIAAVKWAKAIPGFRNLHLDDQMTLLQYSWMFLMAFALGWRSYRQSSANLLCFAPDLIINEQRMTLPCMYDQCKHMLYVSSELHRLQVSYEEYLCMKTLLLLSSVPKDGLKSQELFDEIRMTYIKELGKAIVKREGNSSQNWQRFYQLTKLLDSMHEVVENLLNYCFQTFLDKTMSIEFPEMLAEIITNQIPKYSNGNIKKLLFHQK
# Excerpt: This assay assesses the ability of test compounds to control transcription from the MMTV-LUC reporter gene in lung adenocarcinoma A549 cells or MDA-MB-453 cells, a human breast cancer cell line that naturally expresses the human GR. The assay measures induction of a modified MMTV LTR/promoter linked to the LUC reporter gene.
# The routine transient assay consists of plating 7,000-25,000 cells/well of a white, clear-bottom 96-well plate. Alternatively, 384-well plates can be used at a cell concentration of 10,000/well. The media that the cells are plated in is “exponential growth medium” which consists of phenol red-free RPMI1640 containing 10% FBS, 4 mM L-glutamine, 20 mM HEPES, 10 ug/mL human insulin, and 20 ug/mL gentamicin. Incubator conditions are 37° C. and 5% CO2. The transfection is done in batch mode. The cells are trypsinized and counted to the right cell number in the proper amount of fresh media. It is then gently mixed with the FuGene6/DNA mix and plated onto the 96 or 384-well plate, all the wells receive 100 uL or 40 uL, respectively, of medium+lipid/DNA complex then incubated 37° C. overnight. The transfection cocktail consists of serum-free OptiMEM, FuGene6 reagent and DNA. The manufacturer's (Roche Biochemical) protocol for cocktail setup is as follows: The lipid to DNA ratio is approximately 2.5:1 and the incubation time is 20 min at room temperature. Sixteen to 24 hours after transfection, the cells are treated with dexamethasone to a final concentration of 10 nM as well as the compound of interest, such that final DMSO (vehicle) concentration is equal to or less than 1%. Each plate also contains samples that are treated with 10 nM dexamethasone alone, which is used as the 100% activity control. The cells are exposed to the compounds for 24 hours. After 24 hours, the cells are lysed by a Promega cell culture lysis buffer for approximately 30 min and then the luciferase activity in the extracts is assayed in the 96-well format luminometer. In 384-well format, Steady-Glo (Promega) or Steady-Lite (PerkinElmer) can be used by adding an equal volume of reagent to the media present in each well. Activity induced by 10 nM dexamethasone alone is set at 100% activity. Antagonist activity is calculated by determining the decrease in dexamethasone-induced activity in response to compound treatment relative to samples that were treated with dexamethasone alone. […] This transactivation assay can be performed in an agonist and antagonist mode to identify these different activities.
# [2] = target: T1, human GR; assay: Transrepression Assay (GITAR), TNFα-β-lactamase reporter in U937 cells; format: cell-based; parameters: U937 cells contain an endogenous glucocorticoid receptor (GR); endogenous in cells; host or cells: U937 cells stably transfected with the TNF-alpha promoter/beta-lactamase reporter; details: for GITAR > GRAMM % SEP: GITAR Emax minus GRAMMER Emax; for EC50: U937 cells, inflection point, read-out: Transrepression U937 Cells GITAR IP
# Excerpt: This assay assesses the ability of test compounds to control transcription from the TNFα-β-lactamase reporter gene in U937 cells, a human myelomonocytic leukemia cell line that naturally expresses the human GR. The assay measures compound dependent-repression of the TNFa promoter linked to a reporter gene.
# The human U937 cells that had been stablely transfected with the TNF-α promoter driving β-lactamase are used for this assay. U937 cells contain an endogenous glucocorticoid receptor (GR). Cells are maintained in RPMI 1640 Growth medium (Gibco Cat#11875-093) containing 25 mM HEPES, 10% FBS, 2 mM L-Glutamine, 1 mM Sodium pyruvate, 25 μg/ml Gentamicin (Gibco Cat#15710-064), 1:1000 2-Mercaptoethanol (Gibco Cat#21985-023) and 0.8 mg/ml G418 (Gibco Cat#10131-027). The density of the cells in the flask needs to be about 1×10^6−3×10^6/ml at the time of harvest. Usually, the cells are split to 1.2˜1.4×10^5/ml (1:10) 3 days prior to the assay. 50,000 cells/well are plated in 96 well black-walled plates the day of assay. Test compounds are added 10 μL/well, and cells are incubated at 37° C. for 30˜45 min. For assaying compounds, first dilute 1:10 in DMSO to make 1 mM, then further dilute 1:100 in medium to make 10× stock prior to adding to the cells. Add 50 ng/mlPMA (Sigma, cat# P8139) 10 μL/well to a final concentration 5 ng/ml, and 1 μg/ml LPS (Sigma, cat# L4130) 10 μL/well to a final concentration 100 ng/ml. Incubate cells at 37° C. overnight for ˜18 hr. PMA is stored frozen as 100 μg/ml stock in DMSO. Dilute 1:10 in DMSO for a working stock of 10 μg/ml and store at −20 C. For assaying, dilute the 10 μg/ml working stock 1:200 in medium to make a 10× solution (50 ng/ml). Store frozen LPS at 1 mg/ml in PBS, dilute 1:1000 in medium to make 10× (1 μg/ml) for the assay. Add 6× loading buffer (CCF2-AM) 20 μL/well, and incubate at room temperature for 70˜90 min. […] The activity repressed by 100 nM dexamethasone alone is set as 100% activity.
# [3] = U-937, U937 cells, maximum activity, read-out: Transrepression U937 Cells GITAR Emax
# [4] = U-937, activity repressed by 100 nM dexamethasone alone set as 100%, read-out: maximal activity in the transrepression (GITAR) assay
Emax [1] [%],EC50 [1] [nM],GITAR > GRAMM % SEP [2] [%],EC50 [2] [nM],"Emax [2, 3] [%]","Emax [2, 4] [%]",Structure (SMILES)
76.7,239,13.2,64.3,89.9,> 5,"Cn1cc(S(=O)(=O)N(CCc2ccccc2F)C[C@H]2CCC3=Cc4c(cnn4-c4ccc(F)cc4)C[C@@]32C)c(C(F)(F)F)n1 [Example 98, N-[2-(2-fluorophenyl)ethyl]-N-{[(4αR,5S)-1-(4-fluorophenyl)-4α-methyl-1,4,4α,5,6,7-hexahydrocyclopenta[f]indazol-5-yl]methyl}-1-methyl-3-(trifluoromethyl)-1H-pyrazole-4-sulfonamide]"
62.1,236,24.6,64.4,86.8,> 5,"C[C@]12Cc3cnn(-c4ccc(F)cc4)c3C=C1CC[C@@H]2CN(CCc1ccccc1F)S(=O)(=O)c1ccccc1C(F)(F)F [Example 99, N-[2-(2-fluorophenyl)ethyl]-N-{[(4αR,5S)-1-(4-fluorophenyl)-4α-methyl-1,4,4α,5,6,7-hexahydrocyclopenta[f]indazol-5-yl]methyl}-2-(trifluoromethyl)benzenesulfonamide]"
64.9,397,14.2,192,79.1,> 5,"C[C@]12Cc3cnn(-c4ccc(F)cc4)c3C=C1CC[C@@H]2CN(CCc1ccccc1F)S(=O)(=O)c1ccccc1Cl [Example 100, 2-chloro-N-[2-(2-fluorophenyl)ethyl]-N-{[(4αR,5S)-1-(4-fluorophenyl)-4α-methyl-1,4,4α,5,6,7-hexahydrocyclopenta[f]indazol-5-yl]methyl}benzenesulfonamide]"
78.3,203,8.2,95.1,86.5,> 5,"CCCCS(=O)(=O)N(CCc1ccccc1F)C[C@H]1CCC2=Cc3c(cnn3-c3ccc(F)cc3)C[C@@]21C [Example 102, N-[2-(2-fluorophenyl)ethyl]-N-{[(4αR,5S)-1-(4-fluorophenyl)-4α-methyl-1,4,4α,5,6,7-hexahydrocyclopenta[f]indazol-5-yl]methyl}butane-1-sulfonamide]"
68.8,367,7.7,177,76.5,> 5,"CC(C)CS(=O)(=O)N(CCc1ccccc1F)C[C@H]1CCC2=Cc3c(cnn3-c3ccc(F)cc3)C[C@@]21C [Example 103, N-[2-(2-fluorophenyl)ethyl]-N-{[(4αR,5S)-1-(4-fluorophenyl)-4α-methyl-1,4,4α,5,6,7-hexahydrocyclopenta[f]indazol-5-yl]methyl}-2-methylpropane-1-sulfonamide]"
9.2,258,1.0,153,10.2,> 5,"CCCCCCCCS(=O)(=O)N(CCc1ccccc1F)C[C@H]1CCC2=Cc3c(cnn3-c3ccc(F)cc3)C[C@@]21C [Example 104, N-[2-(2-fluorophenyl)ethyl]-N-{[(4αR,5S)-1-(4-fluorophenyl)-4α-methyl-1,4,4α,5,6,7-hexahydrocyclopenta[f]indazol-5-yl]methyl}octane-1-sulfonamide]"
85.5,193,3.3,109,88.8,> 5,"C[C@]12Cc3cnn(-c4ccc(F)cc4)c3C=C1CC[C@@H]2CN(CCc1ccccc1F)S(=O)(=O)Cc1ccc(Cl)cc1Cl [Example 105, 1-(2,4-dichlorophenyl)-N-[2-(2-fluorophenyl)ethyl]-N-{[(4αR,5S)-1-(4-fluorophenyl)-4α-methyl-1,4,4α,5,6,7-hexahydrocyclopenta[f]indazol-5-yl]methyl}methanesulfonamide]"
82.8,328,2.5,44.1,85.3,> 5,"C[C@]12Cc3cnn(-c4ccc(F)cc4)c3C=C1CC[C@@H]2CN(CCc1ccccc1F)S(=O)(=O)Cc1cccc(Cl)c1 [Example 106, 1-(3-chlorophenyl)-N-[2-(2-fluorophenyl)ethyl]-N-{[(4αR,5S)-1-(4-fluorophenyl)-4α-methyl-1,4,4α,5,6,7-hexahydrocyclopenta[f]indazol-5-yl]methyl}methanesulfonamide]"
73,395,11.4,54.1,84.4,> 5,"C[C@]12Cc3cnn(-c4ccc(F)cc4)c3C=C1CC[C@@H]2CN(CCc1ccccc1F)S(=O)(=O)Cc1ccccc1Cl [Example 107, 1-(2-chlorophenyl)-N-[2-(2-fluorophenyl)ethyl]-N-{[(4αR,5S)-1-(4-fluorophenyl)-4α-methyl-1,4,4α,5,6,7-hexahydrocyclopenta[f]indazol-5-yl]methyl}methanesulfonamide]"
